One experiment addresses T1, BRAF V600E (Homo sapiens, UniProt P15056, V600E).
T1 construct: expressed in transfected cells
The experiment in a line: Cellular assay of target protein degradation, T-Rex 293 cells stably transfected with HA-BRAF_V600E (HA immunofluorescence, high content imaging). Format: cell-based. The note with it: T-Rex 293 HA-BRAF V600E; for DC50: half maximal degradation, read-out: BRaf V600E DC50; for Dmax: maximum degradation observed. In a few lines: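 24 h compound exposure, 1 μM–0.1 nM final, 0.1% DMSO, 37 °C; cells induced with 1 ng/mL doxycycline. PFA fix, Triton permeabilize, anti-HA overnight 4 °C, Hoechst/phalloidin counterstain. Output: DC50, Dmax as % control.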

The target of a further experiment is T2, BRAF G466V (Homo sapiens, UniProt P15056, G466V).
T2 construct: expressed in transfected cells
T2 sequence (P15056 whole entry G466V): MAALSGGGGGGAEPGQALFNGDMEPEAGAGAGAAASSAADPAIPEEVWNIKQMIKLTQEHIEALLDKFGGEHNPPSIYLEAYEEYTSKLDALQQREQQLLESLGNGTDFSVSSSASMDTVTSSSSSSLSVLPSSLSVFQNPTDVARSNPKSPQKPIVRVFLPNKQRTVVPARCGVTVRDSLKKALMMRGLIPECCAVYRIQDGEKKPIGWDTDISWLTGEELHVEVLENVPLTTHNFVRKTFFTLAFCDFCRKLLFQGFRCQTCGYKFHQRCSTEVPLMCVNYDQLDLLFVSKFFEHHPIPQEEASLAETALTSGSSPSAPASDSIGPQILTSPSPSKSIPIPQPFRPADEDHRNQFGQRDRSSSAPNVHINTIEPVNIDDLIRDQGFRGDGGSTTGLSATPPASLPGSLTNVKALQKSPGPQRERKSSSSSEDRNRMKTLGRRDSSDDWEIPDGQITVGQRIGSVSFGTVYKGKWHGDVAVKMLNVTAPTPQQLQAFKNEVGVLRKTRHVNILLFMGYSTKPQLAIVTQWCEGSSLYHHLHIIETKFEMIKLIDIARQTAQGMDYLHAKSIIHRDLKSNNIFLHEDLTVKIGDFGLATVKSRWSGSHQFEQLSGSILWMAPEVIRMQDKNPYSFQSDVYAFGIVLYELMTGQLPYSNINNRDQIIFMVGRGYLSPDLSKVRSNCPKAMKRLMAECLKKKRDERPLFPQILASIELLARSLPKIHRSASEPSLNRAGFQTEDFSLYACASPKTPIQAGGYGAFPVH
The experiment in a line: Cellular assay of target protein degradation, T-Rex 293 cells stably transfected with HA-BRAF G466V (HA immunofluorescence, high content imaging). Format: cell-based. The note with it: T-Rex 293 HA-BRAF G466V; for DC50: half maximal degradation, read-out: BRaf G466V DC50; for Dmax: maximum degradation observed. In a few lines:
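24 h compound, 30 nM–3 pM final, 0.1% DMSO, 37° C; HA-BRAF G466V induced with 0.75 ng/mL doxycycline. PFA fix, Triton perm, anti-HA + Alexa fluor secondary, Hoechst/phalloidin counterstain; imaging. DC50, Dmax (% of control).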

T1 sequence (P15056 whole entry V600E): as the sequence (P15056 whole entry G466V) above, with V466G, V600E counted along it

With `O=C1CC[C@@H](N2Cc3cc(C4CCN(CC5CCN(c6ccc(-c7cnc8[nH]cc(C(=O)c9c(F)ccc(NS(=O)(=O)N%10CC[C@@H](F)C%10)c9F)c8c7)cc6)CC5)CC4)ccc3C2=O)C(=O)N1` [Compound 161, (3R)-N-{3-[5-(4-{4-[(4-{2-[(3R)-2,6-dioxopiperidin-3-yl]-1-oxo-2,3-dihydro-1H-isoindol-5-yl}lpiperidin-1-yl)methyl]piperidin-1-yl}phenyl)-1H-pyrrolo[2,3-b]pyridine-3-carbonyl]-2,4-difluorophenyl}-3-fluoropyrrolidine-1-sulfonamide], at BRAF V600E, the DC50 is 5 to 50 nM and the Dmax is 35 to 70%. Also, on BRAF G466V, the DC50 was below 1 nM and the Dmax is above 70%.
In the case of `O=C1CCC(N2Cc3cc(N4CCC(CN5CCN(C6(c7ccc(-c8cnc9[nH]cc(C(=O)c%10c(F)ccc(NS(=O)(=O)N%11CC[C@@H](F)C%11)c%10F)c9c8)cc7)CC6)CC5)CC4)ccc3C2=O)C(=O)N1` (stereo partly drawn) [Compound 162, (3R)-N-{3-[5-(4-{1-[4-({1-[2-(2,6-dioxopiperidin-3-yl)-1-oxo-2,3-dihydro-1H-isoindol-5-yl]piperidin-4-yl}methyl)piperazin-1-yl]cyclopropyl}phenyl)-1H-pyrrolo[2,3-b]pyridine-3-carbonyl]-2,4-difluorophenyl}-3-fluoropyrrolidine-1-sulfonamide], on BRAF V600E, the half-maximal degradation concentration (DC50) was in the range of 50 to 500 nM and the Dmax was below 35%. Moreover, on BRAF G466V, the DC50 is 1 to 10 nM and the Dmax fell in the range of 35 to 70%.
The corresponding values for `COc1cc(C2CCN(CC3CCN(c4ccc(-c5cnc6[nH]cc(C(=O)c7c(F)ccc(NS(=O)(=O)N8CC[C@@H](F)C8)c7F)c6c5)cc4F)CC3)CC2)cc2c1C(=O)N(C1CCC(=O)NC1=O)C2` (stereo partly drawn) [Compound 163, (3R)-N-[3-(5-{4-[4-({4-[2-(2,6-dioxopiperidin-3-yl)-7-methoxy-1-oxo-2,3-dihydro-1H-isoindol-5-yl]piperidin-1-yl}methyl)piperidin-1-yl]-3-fluorophenyl}-1H-pyrrolo [2,3-b]pyridine-3-carbonyl)-2,4-difluorophenyl]-3-fluoropyrrolidine-1-sulfonamide] are 5 to 50 nM, 35 to 70%, 1 to 10 nM and above 70%.
For the compound `COc1cc(C2CCN(CC3CCN(c4ccc(-c5cnc6[nH]cc(C(=O)c7c(F)ccc(NS(=O)(=O)N8CC[C@@H](F)C8)c7F)c6c5)cn4)CC3)CC2)cc2c1C(=O)N(C1CCC(=O)NC1=O)C2` (stereo partly drawn) [Compound 164, (3R)-N-[3-(5-{6-[4-({4-[2-(2,6-dioxopiperidin-3-yl)-7-methoxy-1-oxo-2,3-dihydro-1H-isoindol-5-yl]piperidin-1-yl}methyl)piperidin-1-yl]pyridin-3-yl}-1H-pyrrolo[2,3-b]pyridine-3-carbonyl)-2,4-difluorophenyl]-3-fluoropyrrolidine-1-sulfonamide], at BRAF V600E, the DC50 fell in the range of 5 to 50 nM and the maximal degradation (Dmax) was in the range of 35 to 70%. At BRAF G466V, the DC50 is below 1 nM and the Dmax is above 70%.
Taken in the same sequence, the figures for `O=C1CC[C@H](N2Cc3cc(OC[C@@H](O)CN4CC5(C4)CN(c4ccc(-c6cnc7[nH]cc(C(=O)c8c(F)ccc(NS(=O)(=O)N9CC[C@@H](F)C9)c8F)c7c6)cc4)C5)ccc3C2=O)C(=O)N1` [Compound 165, (3R)-N-{3-[5-(4-{6-[(2S)-3-({2-[(3S)-2,6-dioxopiperidin-3-yl]-1-oxo-2,3-dihydro-1H-isoindol-5-yl}oxy)-2-hydroxypropyl]-2,6-diazaspiro[3.3]heptan-2-yl}phenyl)-1H-pyrrolo[2,3-b]pyridine-3-carbonyl]-2,4-difluorophenyl}-3-fluoropyrrolidine-1-sulfonamide] were 5 to 50 nM, 35 to 70%, 1 to 10 nM and above 70%.
Consider `O=C1CC[C@@H](N2Cc3cc(OC[C@@H](O)CN4CC5(C4)CN(c4ccc(-c6cnc7[nH]cc(C(=O)c8c(F)ccc(NS(=O)(=O)N9CC[C@@H](F)C9)c8F)c7c6)cc4)C5)ccc3C2=O)C(=O)N1` [Compound 166, (3R)-N-{3-[5-(4-{6-[(2)S-3-({2-[(3R)-2,6-dioxopiperidin-3-yl]-1-oxo-2,3-dihydro-1H-isoindol-5-yl}oxy)-2-hydroxypropyl]-2,6-diazaspiro[3.3]heptan-2-yl}phenyl)-1H-pyrrolo[2,3-b]pyridine-3-carbonyl]-2,4-difluorophenyl}-3-fluoropyrrolidine-1-sulfonamide], for which, at BRAF V600E, the DC50 was in the range of 5 to 50 nM and the Dmax was 35 to 70%. For the same compound, at BRAF G466V, the DC50 fell in the range of 1 to 10 nM and the Dmax was above 70%.
Turning to `CN(CC1CCN(c2ccc3c(c2)CN(C2CCC(=O)NC2=O)C3=O)CC1)[C@H]1C[C@@H](Oc2ccc(-c3cnc4[nH]cc(C(=O)c5c(F)ccc(NS(=O)(=O)N6CC[C@@H](F)C6)c5F)c4c3)cc2)C1` (stereo partly drawn) [Compound 167, (3R)-N-[2,4-difluoro-3-(5-{4-[(1s,3s)-3-[({1-[2-(2,6-dioxopiperidin-3-yl)-1-oxo-2,3-dihydro-1H-isoindol-5-yl]piperidin-4-yl}methyl)(methyl)amino]cyclobutoxy)phe-nyl}-1H-pyrrolo[2,3-b]pyridine-3-carbonyl)phenyl]-3-fluoropyrrolidine-1-sulfonamide], on BRAF V600E, the DC50 is 5 to 50 nM and the Dmax lay within 35 to 70%. Besides, on BRAF G466V, the DC50 is 1 to 10 nM and the Dmax is 35 to 70%.
Consider `O=C1CCC(c2ccc(C3CCN(CC4CCN(c5ccc(-c6cnc7[nH]cc(C(=O)c8c(F)ccc(NS(=O)(=O)N9CC[C@@H](F)C9)c8F)c7c6)cc5)CC4)CC3)cc2F)C(=O)N1` (stereo partly drawn) [Compound 168, (3R)-N-[3-(5-{4-[4-({4-[4-(2,6-dioxopiperidin-3-yl)-3-fluorophenyl]piperidin-1-yl}methyl)piperidin-1-yl]phenyl}-1H-pyrrolo[2,3-b]pyridine-3-carbonyl)-2,4-difluorophenyl]-3-fluoropyrrolidine-1-sulfonamide], for which, on BRAF V600E, the DC50 fell in the range of 5 to 50 nM and the greatest degradation seen (Dmax) is below 35%. Further, on BRAF G466V, the DC50 lay in the range of 1 to 10 nM and the Dmax is above 70%.
`CN1C(=O)CCC(N2Cc3cc(C4CCN(CC5CCN(c6ccc(-c7cnc8[nH]cc(C(=O)c9c(F)ccc(NS(=O)(=O)N%10CC[C@@H](F)C%10)c9F)c8c7)cc6)CC5)CC4)ccc3C2=O)C1=O` (stereo partly drawn) [Compound 169, (3R)-N-[2,4-difluoro-3-(5-{4-[4-({4-[2-(1-methyl-2,6-dioxopiperidin-3-yl)-1-oxo-2,3-dihydro-1H-isoindol-5-yl]piperidin-1-yl}methyl)piperidin-1-yl]phenyl}-1H-pyrrolo[2,3-b]pyridine-3-carbonyl)phenyl]-3-fluoropyrrolidine-1-sulfonamide]: the DC50 is above 500 nM at BRAF V600E and above 30 nM on BRAF G466V.
With `O=C1CC[C@H](N2Cc3cc(C[C@H](O)CN4CC5(C4)CN(c4ccc(-c6cnc7[nH]cc(C(=O)c8c(F)ccc(NS(=O)(=O)N9CC[C@@H](F)C9)c8F)c7c6)cc4)C5)ccc3C2=O)C(=O)N1` [Compound 170, (3R)-N-{3-[5-(4-{6-[(2S)-3-{2-[(3S)-2,6-dioxopiperidin-3-yl]-1-oxo-2,3-dihydro-1H-isoindol-5-yl}-2-hydroxypropyl]-2,6-diazaspiro[3.3]heptan-2-yl}phenyl)-1H-pyrrolo[2,3-b]pyridine-3-carbonyl]-2,4-difluorophenyl}-3-fluoropyrrolidine-1-sulfonamide], on BRAF V600E, the 50% degradation concentration (DC50) fell in the range of 50 to 500 nM and the maximal degradation (Dmax) was 35 to 70%. On BRAF G466V, the DC50 lay within 1 to 10 nM and the maximal degradation (Dmax) is above 70%.
Taken in the same sequence, the figures for `O=C1CC[C@H](N2Cc3cc(CC[C@H](O)CN4CC5(C4)CN(c4ccc(-c6cnc7[nH]cc(C(=O)c8c(F)ccc(NS(=O)(=O)N9CC[C@@H](F)C9)c8F)c7c6)cc4)C5)ccc3C2=O)C(=O)N1` [Compound 172, (3R)-N-{3-[5-(4-{6-[(2S)-4-{2-[(3S)-2,6-dioxopiperidin-3-yl]-1-oxo-2,3-dihydro-1H-isoindol-5-yl}-2-hydroxybutyl]-2,6-diazaspiro[3.3]heptan-2-yl}phenyl)-1H-pyrrolo[2,3-b]pyridine-3-carbonyl]-2,4-difluorophenyl}-3-fluoropyrrolidine-1-sulfonamide] were 5 to 50 nM, 35 to 70%, 1 to 10 nM and above 70%.
Consider `O=C1CC[C@@H](N2Cc3cc(CC[C@H](O)CN4CC5(C4)CN(c4ccc(-c6cnc7[nH]cc(C(=O)c8c(F)ccc(NS(=O)(=O)N9CC[C@@H](F)C9)c8F)c7c6)cc4)C5)ccc3C2=O)C(=O)N1` [Compound 173, (3R)-N-{3-[5-(4-{6-[(2S)-4-{2-[(3R)-2,6-dioxopiperidin-3-yl]-1-oxo-2,3-dihydro-1H-isoindol-5-yl}-2-hydroxybutyl]-2,6-diazaspiro[3.3]heptan-2-yl}phenyl)-1H-pyrrolo[2,3-b]pyridine-3-carbonyl]-2,4-difluorophenyl}-3-fluoropyrrolidine-1-sulfonamide], for which, at BRAF V600E, the DC50 fell in the range of 5 to 50 nM and the Dmax was in the range of 35 to 70%. Besides, at BRAF G466V, the DC50 was in the range of 1 to 10 nM and the Dmax is above 70%.

One may read the DC50 as the midpoint of the concentration-degradation curve. Usually Dmax stands for the greatest extent of degradation seen. A high value points to deep degradation.
